Experimental data reported in PubChem BioAssay AID248 (DTP/NCI, 2004).
Several values for one entry are separate records, joined by “and”; a condition that tells them apart may be missing. Equal values may be shown once. Inconclusive results and toxic doses are left out.

System: L1210 leukemia ip in BDF1 mice, survival T/C
Assay: NCI In Vivo Anticancer Drug Screen. Data for tumor model L1210 Leukemia (intraperitoneal) in B6D2F1 (BDF1) mice
Settings: endpoint: mean survival time, higher = longer survival
How it was run: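 Transplantable tumor model; survival measured in treated vs vehicle control mice. Value = treated/control.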

[1] = dose: 15.0 mg/kg/injection, schedule: Q01DX Z (ip), vehicle: saline
[2] = dose: 100.0 mg/kg/injection, schedule: Q04DX003 (ip), vehicle: saline with Tween-80
[3] = dose: 200.0 mg/kg/injection, schedule: Q04DX003 (ip), vehicle: saline with Tween-80
[4] = dose: 400.0 mg/kg/injection, schedule: Q04DX003 (ip), vehicle: saline with Tween-80
[5] = dose: 100.0 mg/kg/injection, schedule: Q01DX009 (ip), vehicle: saline
[6] = dose: 200.0 mg/kg/injection, schedule: Q01DX009 (ip), vehicle: saline
[7] = dose: 400.0 mg/kg/injection, schedule: Q01DX009 (ip), vehicle: saline
[8] = dose: 25.0 mg/kg/injection, schedule: Q01DX009 (ip), vehicle: saline
[9] = dose: 50.0 mg/kg/injection, schedule: Q01DX009 (ip), vehicle: saline
[10] = dose: 100.0 mg/kg/injection, schedule: Q01DX001 (ip), vehicle: saline
[11] = dose: 200.0 mg/kg/injection, schedule: Q01DX001 (ip), vehicle: saline
[12] = dose: 400.0 mg/kg/injection, schedule: Q01DX001 (ip), vehicle: saline

N=C(N)SC1c2ccccc2-c2ccc(Br)cc21 (stereo not given)
T/C (dose: 75.0 mg/kg/injection, schedule: Q01DX001 (ip), vehicle: carboxymethylcellulose (CMC)): 104 % of control | T/C (dose: 150.0 mg/kg/injection, schedule: Q01DX001 (ip), vehicle: carboxymethylcellulose (CMC)): 91 % of control

CCN(CC)CCn1cnc2cc([N+](=O)[O-])ccc21
T/C (dose: 20.0 mg/kg/injection, schedule: Q01DX001 (ip), vehicle: Klucel (hydroxypropylcellulose) (HPC)): 101 % of control | T/C (dose: 40.0 mg/kg/injection, schedule: Q01DX001 (ip), vehicle: Klucel (hydroxypropylcellulose) (HPC)): 98 % of control

O=C(Nc1ccc(C2=NCCN2)cc1)c1cc(C(=O)Nc2ccc(C3=NCCN3)cc2)cc(C(=O)Nc2ccc(C3=NCCN3)cc2)c1
T/C (dose: 4.3 mg/kg/injection, schedule: Q01DX Z (ip), vehicle: saline): 95 % of control | T/C (dose: 6.4 mg/kg/injection, schedule: Q01DX Z (ip), vehicle: saline): 93 % of control | T/C (dose: 9.7 mg/kg/injection, schedule: Q01DX Z (ip), vehicle: saline): 97 % of control and 92 % of control | T/C [1]: 92 % of control | T/C (dose: 22.0 mg/kg/injection, schedule: Q01DX Z (ip), vehicle: saline): 88 % of control | T/C (dose: 33.0 mg/kg/injection, schedule: Q01DX Z (ip), vehicle: saline): 97 % of control | T/C (dose: 111.0 mg/kg/injection, schedule: Q01DX Z (ip), vehicle: saline): 93 % of control | T/C (dose: 166.0 mg/kg/injection, schedule: Q01DX Z (ip), vehicle: saline): 90 % of control | T/C (dose: 250.0 mg/kg/injection, schedule: Q01DX Z (ip), vehicle: saline): 87 % of control | T/C (dose: 375.0 mg/kg/injection, schedule: Q01DX Z (ip), vehicle: saline): 88 % of control

O=C(O)C1CCCN1C(=O)Cc1ccc2c(c1)OCO2 (stereo not given)
T/C (dose: 75.0 mg/kg/injection, schedule: Q01DX009 (ip), vehicle: Klucel (hydroxypropylcellulose) (HPC)): 96 % of control | T/C (dose: 100.0 mg/kg/injection, schedule: Q01DX001 (ip), vehicle: Klucel (hydroxypropylcellulose) (HPC)): 98 % of control | T/C (dose: 150.0 mg/kg/injection, schedule: Q01DX009 (ip), vehicle: Klucel (hydroxypropylcellulose) (HPC)): 93 % of control | T/C (dose: 200.0 mg/kg/injection, schedule: Q01DX001 (ip), vehicle: Klucel (hydroxypropylcellulose) (HPC)): 95 % of control | T/C (dose: 300.0 mg/kg/injection, schedule: Q01DX009 (ip), vehicle: Klucel (hydroxypropylcellulose) (HPC)): 98 % of control | T/C (dose: 400.0 mg/kg/injection, schedule: Q01DX001 (ip), vehicle: Klucel (hydroxypropylcellulose) (HPC)): 92 % of control

Cc1cccc(C)c1NC(=O)N(CCCl)N=O
T/C (dose: 5.7 mg/kg/injection, schedule: Q01DX Z (oral), vehicle: carboxymethylcellulose (CMC)): 150 % of control | T/C (dose: 13.0 mg/kg/injection, schedule: Q01DX Z (oral), vehicle: carboxymethylcellulose (CMC)): 206 % of control | T/C (dose: 16.0 mg/kg/injection, schedule: Q01DX001 (ip), vehicle: carboxymethylcellulose (CMC)): 192 % of control | T/C (dose: 20.0 mg/kg/injection, schedule: Q01DX Z (oral), vehicle: carboxymethylcellulose (CMC)): 170 % of control | T/C (dose: 31.0 mg/kg/injection, schedule: Q01DX001 (ip), vehicle: carboxymethylcellulose (CMC)): 308 % of control | T/C (dose: 62.0 mg/kg/injection, schedule: Q01DX001 (ip), vehicle: carboxymethylcellulose (CMC)): 156 % of control | T/C (dose: 125.0 mg/kg/injection, schedule: Q01DX001 (ip), vehicle: carboxymethylcellulose (CMC)): 156 % of control | T/C (dose: 187.0 mg/kg/injection, schedule: Q01DX001 (ip), vehicle: carboxymethylcellulose (CMC)): 91 % of control

O=C(O)c1ccc(N=Cc2ccccc2O)cc1.[Co]
T/C (dose: 100.0 mg/kg/injection, schedule: Q01DX001 (ip), vehicle: other): 96 % of control | T/C (dose: 200.0 mg/kg/injection, schedule: Q01DX001 (ip), vehicle: other): 112 % of control

CC1(C)CC(=O)C=C(OCCc2ccccc2)C1
T/C [2]: 96 % of control | T/C [3]: 94 % of control | T/C [4]: 91 % of control

CCCCCC(O)CCCCC
T/C [5]: 102 % of control | T/C [6]: 107 % of control | T/C [7]: 113 % of control

CCOc1ccc2c(ccc(/C=C\c3cc(C)c4cccnc4c3O)[n+]2C)c1
T/C (dose: 25.0 mg/kg/injection, schedule: Q01DX001 (ip), vehicle: carboxymethylcellulose (CMC)): 104 % of control | T/C (dose: 50.0 mg/kg/injection, schedule: Q01DX001 (ip), vehicle: carboxymethylcellulose (CMC)): 109 % of control | T/C (dose: 100.0 mg/kg/injection, schedule: Q01DX001 (ip), vehicle: carboxymethylcellulose (CMC)): 93 % of control

c1ccc2[nH]c(-c3ccc(N=Nc4ccc(-c5nc6ccccc6[nH]5)cc4)cc3)nc2c1
T/C (dose: 15.0 mg/kg/injection, schedule: Q01DX Z (ip), vehicle: other): 100 % of control | T/C (dose: 30.0 mg/kg/injection, schedule: Q01DX Z (ip), vehicle: other): 97 % of control | T/C (dose: 60.0 mg/kg/injection, schedule: Q01DX Z (ip), vehicle: other): 105 % of control | T/C (dose: 120.0 mg/kg/injection, schedule: Q01DX Z (ip), vehicle: other): 96 % of control | T/C (dose: 180.0 mg/kg/injection, schedule: Q01DX Z (ip), vehicle: carboxymethylcellulose (CMC)): 108 % of control | T/C (dose: 270.0 mg/kg/injection, schedule: Q01DX Z (ip), vehicle: carboxymethylcellulose (CMC)): 101 % of control

COc1c(C)c2c(c(O)c1C/C=C(\C)CCC(=O)O)C(=O)OC2
T/C (dose: 12.5 mg/kg/injection, schedule: Q01DX001 (ip), vehicle: saline): 96 % of control | T/C (dose: 25.0 mg/kg/injection, schedule: Q01DX001 (ip), vehicle: saline): 100 % of control | T/C [8]: 102 % of control | T/C (dose: 50.0 mg/kg/injection, schedule: Q01DX001 (ip), vehicle: saline): 103 % of control | T/C [9]: 98 % of control | T/C [10]: 100 % of control | T/C [5]: 107 % of control | T/C (dose: 100.0 mg/kg/injection, schedule: Q04DX002 (ip), vehicle: Klucel (hydroxypropylcellulose) (HPC)): 104 % of control | T/C [11]: 100 % of control | T/C [6]: 118 % of control | T/C (dose: 200.0 mg/kg/injection, schedule: Q04DX002 (ip), vehicle: Klucel (hydroxypropylcellulose) (HPC)): 112 % of control | T/C [12]: 100 % of control | T/C [7]: 124 % of control | T/C (dose: 400.0 mg/kg/injection, schedule: Q04DX002 (ip), vehicle: Klucel (hydroxypropylcellulose) (HPC)): 112 % of control

c1ccc2c(c1)C[N+]1(Cc3ccccc3-2)CC12CCCCC2
T/C (dose: 12.0 mg/kg/injection, schedule: Q01DX009 (ip), vehicle: saline): 110 % of control | T/C [8]: 104 % of control | T/C [9]: 100 % of control

O=C1NC(=O)C2(CCCC2)N1
T/C [10]: 102 % of control | T/C [11]: 108 % of control | T/C [12]: 102 % of control

Cc1ccc(/C=N/N=C(N)N)cc1
T/C [1]: 104 % of control | T/C (dose: 30.0 mg/kg/injection, schedule: Q01DX Z (ip), vehicle: saline): 98 % of control | T/C (dose: 30.0 mg/kg/injection, schedule: Q01DX Z (oral), vehicle: saline): 99 % of control | T/C (dose: 60.0 mg/kg/injection, schedule: Q01DX Z (ip), vehicle: saline): 96 % of control | T/C (dose: 60.0 mg/kg/injection, schedule: Q01DX Z (oral), vehicle: saline): 94 % of control | T/C (dose: 120.0 mg/kg/injection, schedule: Q01DX Z (oral), vehicle: saline): 97 % of control | T/C (dose: 240.0 mg/kg/injection, schedule: Q01DX Z (oral), vehicle: saline): 100 % of control

N#Cc1cc2c3ccccc3ncc2c2ccccc12
T/C (dose: 100.0 mg/kg/injection, schedule: Q04DX003 (ip), vehicle: Klucel (hydroxypropylcellulose) (HPC)): 91 % of control | T/C (dose: 200.0 mg/kg/injection, schedule: Q01DX009 (ip), vehicle: Klucel (hydroxypropylcellulose) (HPC)): 96 % of control | T/C (dose: 200.0 mg/kg/injection, schedule: Q04DX003 (ip), vehicle: Klucel (hydroxypropylcellulose) (HPC)): 89 % of control | T/C (dose: 400.0 mg/kg/injection, schedule: Q04DX003 (ip), vehicle: Klucel (hydroxypropylcellulose) (HPC)): 89 % of control

Cn1nnnc1N/N=C(\Br)c1ccccc1
T/C (dose: 100.0 mg/kg/injection, schedule: Q01DX009 (ip), vehicle: saline with Tween-80): 96 % of control | T/C [2]: 104 % of control | T/C (dose: 200.0 mg/kg/injection, schedule: Q01DX009 (ip), vehicle: saline with Tween-80): 93 % of control | T/C [3]: 104 % of control | T/C (dose: 400.0 mg/kg/injection, schedule: Q01DX009 (ip), vehicle: saline with Tween-80): 95 % of control | T/C [4]: 100 % of control

COCC(O)C(OC)C(OC)C(N)C=O (stereo not given)
T/C [10]: 101 % of control | T/C [11]: 101 % of control | T/C [12]: 107 % of control
